Values after ≈ are worked out from the molar mass of the structure shown. Counter-ions that a name gives are not always drawn. Like-named read-outs stand apart in the source and are kept apart here.
Columns and labels:
in vitro = assay: in vitro
Experimental: The compounds were analyzed for viability of the human pro-monocytic cell line U-937 (ATCC CRL- 1593.2TM) using an MTT (3-(4,5-dimethylthiazol-2-yl)-2,5- diphenyltetrazolium bromide) assay based on a previously described methodology, assessing cytotoxic activity. The resulting compounds were determined by measuring mitochondrial dehydrogenase activity, adding […] of MTT solution (0.5 mg/mL) and incubation at 37 °C for 3 h. Cell viability was defined from the quantity of formazan produced and the intensity of color (absorbance) registered through optical density (O.D.) obtained at 570 nm in a (VarioskanTM Flash Multimode Reader—Thermo Scientific, Waltham, MA, USA) spectrophotometer. As a negative control, isolated cells were cultured (without the compounds) to observe viability. […] We performed two independent tests with each concentration, in triplicate.
Cytotoxicity was determined according to the viability and mortality percentages obtained in each experimental condition (synthesized compounds, amphotericin B, benznidazole, chloroquine, and culture medium). Viability percentages were first calculated using Equation (1). (1) % Viability=O.D exposed cells÷O.D Control cells × 100 Then, cell growth inhibition percentage was calculated as 100 - % viability.
The cell growth inhibition percentages were used to calculate median lethal concentrations (LC50) using Probit analysis.

[1] = tested on: Leishmania braziliensis amastigotes; assay: In vitro antileishmanial activity, intracellular amastigotes (EGFP, flow cytometry); format: cell-based; settings: intracellular amastigotes in U-937 cells, 72 h, mean ± SD
Experimental: The activities of the derivatives in L. braziliensis intracellular amastigotes, transfected with the green fluorescent protein gene (MHOM/CO/88/UA301-EGFP) were evaluated. Initially, human U-937 cells at a density of 3 × 10^5 cells/mL in RPMI 1640 and 0.1 μg/mL PMA (phorbol-12-myristate-13-acetate) were dispensed in a 24-well microplate and incubated at 37 °C, and 5% CO2. At 72 h of incubation, the cells were infected with growing (stationary phase) promastigotes; 15 parasites per cell. The plates were incubated at 34 °C and 5% CO2 for 3 h and the cells then washed twice with phosphate buffer solution (PBS) to eliminate non-internalized parasites. Fresh RPMI-1640 was added to each well (1 mL) and the plates were incubated again to complete the infection. […] The cells were then removed from the bottom plate with a trypsin/EDTA solution (250 mg), and centrifuged at 1100 rpm for 10 min at 4 °C; the supernatant was discarded and the cells were washed with 1 mL of cold PBS and centrifuged twice at 1100 rpm for 10 min at 4 °C. After this final wash, the supernatant was discarded and the cells were suspended in 500 μL of PBS.
The cells were run in a flow cytometer (Cytomics FC 500MPL), reading at 488 nm (exciting) and 525 nm (emitting) over an argon laser, and counting 10,000 events. Infected cells were determined according to green fluorescence events (parasites). Infected cells exposed to the control drug (amphotericin B) were used as antileishmanial activity controls (positive control). Infected cells incubated in the absence of any compound or drug were used as infection controls (negative control). Non-specific fluorescence was corrected by subtracting fluorescence from unstained cells. All determinations were performed in triplicate, in at least two independent experiments.
(§1) Data for percentages of parasite reduction or inhibition were used to calculate the EC50 using Probit linear regression modeling. […] The selectivity index (SI) was calculated dividing cytotoxic activity by anti-parasitic activity using the following formula: SI = CL50 ÷ CE50.

[2] = tested on: Plasmodium falciparum 3D7; assay: In vitro antiplasmodial activity (LDH, Malstat); format: cell-based; settings: for EC50: Plasmodium falciparum
Experimental: Cultures of asynchronous P. falciparum 3D7 strains were adjusted for 0.5% parasitemia and 1% hematocrit in RPMI medium enriched with 3% lipid-rich bovine serum albumin—Albumax II. […] The plates were incubated for 48 h at 37 °C in an atmosphere of N2 (90%), CO2 (5%) and O2 (5%). After incubation, the parasites were harvested and subjected to three 20-min freeze-thaw cycles. At the same time, 100 µL of Malstat reagent (400 µL of Triton X-100 in 80 mL of deionized water, 4 g of L-lactate, 1.32 g of Tris buffer, and 0.022 g of adenine acetylpyridine dinucleotide in 200 mL of deionized water; pH 9.0), and […] of NBT/PES solution (0.16 g of nitroblue-tetrazolium salt, and 0.08 g of phenazine sulfate in 100 mL of deionized water) were added to each well of an additional 96-well plate. After freezing and thawing cycles, the culture in each of the wells on the first plate was re-suspended by pipetting, and 15 µL was removed from each well and added to the corresponding well on the additional plate (containing the Malstat and NBT/PES reagents). After one hour of incubation in the dark, the color development of the lactate dehidrogenase (LDH) reaction was read on a spectrofluorometer (Varioskan, Thermo, Waltham, MA, USA) at 650 nm. The color intensity in each experimental condition was recorded in fluorescent units (F.U). Non-specific fluorescence was corrected by subtracting F.U. from the blanks. The entire experiment was performed in triplicate in at least two independent experiments. Chloroquine (QC) was used as a positive control and the culture medium was used as a negative control.
The antiplasmodial activity of each compound was evaluated through reduction in parasite growth, calculated according to Equation (2):(2) % parasite inhibition=100−F.U exposed parasites÷F.U non exposed parasites × 100
as §1

P. falciparum = tested on: P. falciparum; parameters: method as in ref 42 = [42]; 42. Sudi S. Hassan W.R.M. Ali A.H. Basir R. Embi N. Sidek H.M. A derivative of cinnamic acid, methyl-4-hydroxycinnamate modulates inflammatory cytokine levels in malaria-infected mice through inhibiti; settings: cited from earlier work
Leishmania amazonensis = tested on: Leishmania amazonensis; parameters: method as in Lima et al. (2016) 46; settings: ref Lima et al. (2016) 46; cited from earlier work
Trypanosoma brucei = tested on: Trypanosoma brucei; parameters: method as in Steverding et al. (2016) 51; settings: ref Steverding et al. (2016) 51; cited from earlier work
L. amazonensis = tested on: L. amazonensis; parameters: method as in ref 41 = [41]; 41. Monzote L. Córdova W.H.P. García M. Piñón A. Setzer W.N. In-vitro and In-vivo Activities of Phenolic Compounds Against Cutaneous Leishmaniasis Rec. Nat. Prod. 2016 10 269 276; settings: cited from earlier work
[3] = 3D7, 48 h, read-out: Plasmodium falciparum EC50, 3D7 strain, 48 h, mean ± SD

| SMILES | CC50 (in vitro) | EC50 [1] | EC50 [2, 3] | further results |
| --- | --- | --- | --- | --- |
| C[C@@H]1[C@H](O)[C@@H](C)/C=C/C=C/C=C/C=C/C=C/C=C/C=C/[C@H](O[C@@H]2O[C@H](C)[C@@H](O)[C@H](N)[C@@H]2O)C[C@@H]2O[C@](O)(C[C@@H](O)C[C@@H](O)[C@H](O)CC[C@@H](O)C[C@@H](O)CC(=O)O[C@H]1C)C[C@H](O)[C@H]2C(=O)O [AMB, amphotericin B, reference compound] | 38.4 ± 6.3 mg/L (≈ 41.6 µM) | 0.3 ± 0.07 mg/L (≈ 0.325 µM) |  |  |
| CCN(CC)CCCC(C)Nc1ccnc2cc(Cl)ccc12 (stereo not drawn) [CQ, chloroquine diphosphate salt, reference compound] |  |  |  | EC50 ([2]; 3D7, 48 h, read-out: Plasmodium falciparum EC50): 3.35 ± 0.39 mg/L |
| COC(=O)/C=C/c1ccc(O)cc1 [Compound 1, methyl p-coumarate] | 6.26 ± 0.03 mg/L (≈ 35.1 µM) | 8.28 ± 0.14 mg/L (≈ 46.5 µM) |  | activity against P. falciparum (P. falciparum): presents activity; EC50 ([2]; 3D7 strain, 48 h, mean ± SD, read-out: Plasmodium falciparum EC50): 64.6 ± 2.89 mg/L (≈ 362 µM) |
| CCOC(=O)/C=C/c1ccc(O)cc1 [Compound 2, ethyl p-coumarate] | 1.06 ± 1.08 mg/L (≈ 5.51 µM) | 4.91 ± 0.64 mg/L (≈ 25.5 µM) | 110 ± 30.8 mg/L (≈ 574 µM) |  |
| CCCOC(=O)/C=C/c1ccc(O)cc1 [Compound 3, propyl p-coumarate] | 11.9 ± 0.8 mg/L (≈ 57.7 µM) | 6.3 ± 1.14 mg/L (≈ 30.5 µM) | 139 ± 4.07 mg/L (≈ 674 µM) |  |
| CC(C)OC(=O)/C=C/c1ccc(O)cc1 [Compound 4, isopropyl p-coumarate] | 96.2 ± 18.9 mg/L (≈ 467 µM) | 28.33 ± 0.27 mg/L (≈ 137 µM) | 106 ± 9.97 mg/L (≈ 514 µM) |  |
| COCCOC(=O)/C=C/c1ccc(O)cc1 [Compound 5, methoxy-ethyl p-coumarate] | 127 ± 16.5 mg/L (≈ 570 µM) | 87 ± 18.1 mg/L (≈ 391 µM) | 98.7 ± 17.7 mg/L (≈ 444 µM) |  |
| CCCCOC(=O)/C=C/c1ccc(O)cc1 [Compound 6, butyl p-coumarate] | 30.9 ± 6.32 mg/L (≈ 140 µM) | 323 ± 50 mg/L (≈ 1470 µM) | 199 ± 7.9 mg/L (≈ 903 µM) |  |
| CCCCCOC(=O)/C=C/c1ccc(O)cc1 [Compound 7, pentyl p-coumarate] | 16.1 ± 3.81 mg/L (≈ 68.7 µM) | 32 ± 5.05 mg/L (≈ 137 µM) | 156 ± 8.2 mg/L (≈ 667 µM) | Plasmodium falciparum EC50 ([2]; 3D7 strain, 48 h, mean ± SD): 95.48 ± 1.84 mg/L |
| CC(C)CCOC(=O)/C=C/c1ccc(O)cc1 [Compound 8, isopentyl p-coumarate] | 19.6 ± 1.76 mg/L (≈ 83.6 µM) | 6.02 ± 0.22 mg/L (≈ 25.7 µM) | 95.5 ± 1.84 mg/L (≈ 408 µM) | Plasmodium falciparum EC50 ([2]; 3D7 strain, 48 h, mean ± SD): 156.37 ± 8.2 mg/L |
| CCCCCCOC(=O)/C=C/c1ccc(O)cc1 [Compound 9, hexyl p-coumarate] | 11.2 ± 0.86 mg/L (≈ 45.3 µM) | 4.14 ± 0.55 mg/L (≈ 16.7 µM) | 206 ± 46.4 mg/L (≈ 831 µM) |  |
| CCCCCCCCCCCCOC(=O)/C=C/c1ccc(O)cc1 [Compound 10, dodecyl p-coumarate] | 15.4 ± 1.84 mg/L (≈ 46.4 µM) | 16.3 ± 0.49 mg/L (≈ 49.1 µM) | 81.2 ± 8.54 mg/L (≈ 244 µM) |  |
| Cc1ccc(COC(=O)/C=C/c2ccc(O)cc2)cc1 [Compound 11, 4-methylbenzyl p-coumarate] | 20.8 ± 3.47 mg/L (≈ 77.6 µM) | 5.69 ± 0.3 mg/L (≈ 21.2 µM) | 84 ± 15.3 mg/L (≈ 313 µM) |  |
| CC(C)c1ccc(COC(=O)/C=C/c2ccc(O)cc2)cc1 [Compound 12, 4-isopropylbenzyl p-coumarate] | 35.2 ± 13.9 mg/L (≈ 119 µM) | 11.2 ± 0.2 mg/L (≈ 37.8 µM) | 93.7 ± 14.2 mg/L (≈ 316 µM) |  |
| CCOC(=O)/C=C/c1ccc(O)c(O)c1 [ethyl caffeate] |  |  |  | activity against Leishmania amazonensis (Leishmania amazonensis): no activity |
| CC(C)CCOC(=O)/C=C/c1ccc(O)c(O)c1 [isopentyl caffeate] |  |  |  | antiparasitic activity against Trypanosoma brucei (Trypanosoma brucei): antiparasitic activity |
| O=C(O)C=Cc1ccc(O)cc1 [p-Coumaric acid] |  |  |  | antiparasitic activity against L. amazonensis (L. amazonensis): presents antiparasitic activity |
